Legend:
BRG-1 = target: T1, BRG-1 (Homo sapiens, UniProt P51532); assay: ATPase catalytic activity of BRG-1, ADP-Glo in vitro biochemical assay; conditions: ADP-Glo ATPase assay, 30 nM BRG-1, 400 μM ATP; read-out: BRG1 IC50
T1 construct: made in house; host or cells: High Five insect cells
Description: (§1) The ATPase catalytic activity of BRM or BRG-1 was measured by an in vitro biochemical assay using ADP-Glo™ (Promega, V9102). The ADP-Glo™ kinase assay is performed in two steps once the reaction is complete. The first step is to deplete any unconsumed ATP in the reaction. The second step is to convert the reaction product ADP to ATP, which will be utilized by the luciferase to generate luminesce and be detected by a luminescence reader, such as Envision.
Then, following addition of 5 μL of ADP-Glo™ Reagent provided in the kit, the reaction incubates at room temperature for 40 minutes. Then, 10 μL of Kinase Detection Reagent provided in the kit is added to convert ADP to ATP, and the reaction incubates at room temperature for 60 minutes. Finally, luminescence measurement is collected with a plate-reading luminometer, such as Envision.

BRM = target: T2, BRM (Homo sapiens, UniProt P51531); assay: ATPase catalytic activity of BRM, ADP-Glo in vitro biochemical assay; conditions: for IC50: 30 nM BRM, 400 μM ATP; for Ratio* (BRG1 IC50 (μM) divided by BRM IC50 (μM)): selectivity ratio BRG1 IC50 / BRM IC50
T2 construct: made in house; host or cells: High Five insect cells
Description: as §1
The assay reaction mixture ([…]) contains 30 nM of BRM or BRG-1, 20 nM salmon sperm DNA (from Invitrogen, UfraPure™ Salmon Sperm DNA Solution, cat #15632011), and 400 μM of ATP in the ATPase assay buffer, which comprises of 20 mM Tris, pH 8, 20 mM MgCl2, 50 mM NaCl, 0.1% Tween-20, and 1 mM fresh DTT (Piercer™ DTT (Dithiothreitol), cat #20290). The reaction is initiated by the addition of the 2.5 μL ATPase solution to 2.5 μL ATP/DNA solution on low volume white Proxiplate-384 plus plate (PerkinElmer, cat #6008280) and incubates at room temperature for 1 hour. Then, following addition of 5 μL of ADP-Glo™ Reagent provided in the kit, the reaction incubates at room temperature for 40 minutes. Then, 10 μL of Kinase Detection Reagent provided in the kit is added to convert ADP to ATP, and the reaction incubates at room temperature for 60 minutes. Finally, luminescence measurement is collected with a plate-reading luminometer, such as Envision.

[1] = ATPase catalytic activity, ADP-Glo

T2 sequence (P51531 whole entry): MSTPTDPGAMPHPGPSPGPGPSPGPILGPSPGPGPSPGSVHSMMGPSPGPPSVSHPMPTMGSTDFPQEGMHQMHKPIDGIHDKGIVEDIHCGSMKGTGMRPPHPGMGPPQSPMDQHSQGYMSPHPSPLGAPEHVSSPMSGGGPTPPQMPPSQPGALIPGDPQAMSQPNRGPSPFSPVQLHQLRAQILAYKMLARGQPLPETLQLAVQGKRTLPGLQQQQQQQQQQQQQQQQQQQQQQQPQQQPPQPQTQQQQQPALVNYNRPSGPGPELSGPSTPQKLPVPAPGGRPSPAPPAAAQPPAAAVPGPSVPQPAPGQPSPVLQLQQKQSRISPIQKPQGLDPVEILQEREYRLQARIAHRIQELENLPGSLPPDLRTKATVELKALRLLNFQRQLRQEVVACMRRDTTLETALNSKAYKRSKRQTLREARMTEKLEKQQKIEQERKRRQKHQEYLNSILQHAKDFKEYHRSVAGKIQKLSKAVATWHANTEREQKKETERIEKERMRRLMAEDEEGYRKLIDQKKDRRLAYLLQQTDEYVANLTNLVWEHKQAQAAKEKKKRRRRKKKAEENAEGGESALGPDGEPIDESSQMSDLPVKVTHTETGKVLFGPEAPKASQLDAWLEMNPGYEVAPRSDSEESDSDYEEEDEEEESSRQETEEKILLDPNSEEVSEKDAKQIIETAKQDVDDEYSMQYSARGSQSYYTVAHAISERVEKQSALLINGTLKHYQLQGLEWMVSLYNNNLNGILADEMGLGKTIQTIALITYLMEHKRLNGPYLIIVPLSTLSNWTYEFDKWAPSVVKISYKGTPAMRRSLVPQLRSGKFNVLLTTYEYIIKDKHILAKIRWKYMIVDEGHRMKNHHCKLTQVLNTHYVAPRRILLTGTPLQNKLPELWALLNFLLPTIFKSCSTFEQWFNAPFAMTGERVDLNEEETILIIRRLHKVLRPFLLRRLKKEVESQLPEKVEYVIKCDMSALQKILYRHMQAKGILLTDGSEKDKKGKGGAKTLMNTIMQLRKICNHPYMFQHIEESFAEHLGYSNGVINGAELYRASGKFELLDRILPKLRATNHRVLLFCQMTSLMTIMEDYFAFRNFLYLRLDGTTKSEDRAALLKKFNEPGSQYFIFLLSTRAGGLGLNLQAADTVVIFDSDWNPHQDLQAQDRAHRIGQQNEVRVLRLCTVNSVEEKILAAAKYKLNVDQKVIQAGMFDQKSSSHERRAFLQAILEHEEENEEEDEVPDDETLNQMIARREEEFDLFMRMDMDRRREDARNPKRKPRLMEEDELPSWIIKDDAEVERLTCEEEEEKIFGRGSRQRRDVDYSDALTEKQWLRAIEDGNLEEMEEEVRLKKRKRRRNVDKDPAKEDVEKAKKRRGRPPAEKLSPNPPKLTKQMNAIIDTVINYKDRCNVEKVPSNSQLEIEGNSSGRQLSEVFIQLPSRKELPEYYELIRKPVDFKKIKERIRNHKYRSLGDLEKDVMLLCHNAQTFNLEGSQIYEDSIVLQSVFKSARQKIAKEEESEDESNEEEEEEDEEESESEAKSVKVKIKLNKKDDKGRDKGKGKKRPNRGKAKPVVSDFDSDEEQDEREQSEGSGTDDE
T1 sequence (P51532 whole entry): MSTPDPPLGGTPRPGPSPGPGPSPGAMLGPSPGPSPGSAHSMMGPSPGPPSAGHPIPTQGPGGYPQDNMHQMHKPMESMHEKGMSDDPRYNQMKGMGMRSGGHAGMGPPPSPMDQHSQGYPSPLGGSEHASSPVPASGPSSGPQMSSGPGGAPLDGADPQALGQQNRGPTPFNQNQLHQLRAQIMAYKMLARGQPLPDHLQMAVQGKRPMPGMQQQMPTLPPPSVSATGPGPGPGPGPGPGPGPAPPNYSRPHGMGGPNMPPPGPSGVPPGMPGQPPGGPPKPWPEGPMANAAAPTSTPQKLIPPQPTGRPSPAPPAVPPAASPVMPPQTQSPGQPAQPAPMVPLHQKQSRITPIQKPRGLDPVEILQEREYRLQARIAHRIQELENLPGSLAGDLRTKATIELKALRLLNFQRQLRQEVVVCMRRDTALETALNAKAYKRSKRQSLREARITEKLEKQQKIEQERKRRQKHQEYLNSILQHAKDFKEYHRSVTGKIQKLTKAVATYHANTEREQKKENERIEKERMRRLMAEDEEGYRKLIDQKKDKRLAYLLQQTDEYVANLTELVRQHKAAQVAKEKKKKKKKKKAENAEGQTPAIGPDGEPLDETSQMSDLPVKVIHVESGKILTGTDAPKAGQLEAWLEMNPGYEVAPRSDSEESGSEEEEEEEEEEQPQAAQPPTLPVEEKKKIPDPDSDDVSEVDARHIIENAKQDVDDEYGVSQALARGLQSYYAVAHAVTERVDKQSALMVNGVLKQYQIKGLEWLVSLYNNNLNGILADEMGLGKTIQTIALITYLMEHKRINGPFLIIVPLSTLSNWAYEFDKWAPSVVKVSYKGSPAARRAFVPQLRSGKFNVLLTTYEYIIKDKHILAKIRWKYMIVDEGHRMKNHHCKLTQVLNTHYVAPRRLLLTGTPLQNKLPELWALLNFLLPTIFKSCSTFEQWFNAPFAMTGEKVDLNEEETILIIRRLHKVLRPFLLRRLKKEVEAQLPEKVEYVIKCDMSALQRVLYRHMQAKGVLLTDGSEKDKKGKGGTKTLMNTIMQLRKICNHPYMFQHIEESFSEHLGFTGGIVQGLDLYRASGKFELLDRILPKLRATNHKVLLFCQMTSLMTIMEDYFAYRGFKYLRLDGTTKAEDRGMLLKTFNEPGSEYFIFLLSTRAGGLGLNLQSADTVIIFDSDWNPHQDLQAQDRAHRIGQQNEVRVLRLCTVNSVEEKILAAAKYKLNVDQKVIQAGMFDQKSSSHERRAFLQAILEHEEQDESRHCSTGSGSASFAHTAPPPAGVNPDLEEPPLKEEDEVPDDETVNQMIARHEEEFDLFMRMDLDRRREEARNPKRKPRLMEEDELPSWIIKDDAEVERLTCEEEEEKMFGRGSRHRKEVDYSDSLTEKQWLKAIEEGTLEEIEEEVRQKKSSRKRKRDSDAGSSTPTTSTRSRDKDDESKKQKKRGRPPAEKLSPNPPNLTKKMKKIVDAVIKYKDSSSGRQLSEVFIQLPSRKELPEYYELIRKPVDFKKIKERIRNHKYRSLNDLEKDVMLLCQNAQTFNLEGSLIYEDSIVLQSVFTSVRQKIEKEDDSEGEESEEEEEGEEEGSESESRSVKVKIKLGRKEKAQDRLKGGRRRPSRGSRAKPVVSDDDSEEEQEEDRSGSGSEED

| Compound | IC50 (BRM; ADP-Glo ATPase assay) [nM] | IC50 (BRM; [1]) [nM] | Ratio* (BRM; ratio of BRG1 IC50 to BRM IC50) | Ratio* (BRM; ratio BRG1 IC50 / BRM IC50) | other results |
| --- | --- | --- | --- | --- | --- |
| CO[C@H](C)CN(C)c1cccc(-c2ccc3cnc(CNC(=O)c4ccc5c(c4)S(=O)(=O)CCOC5)cc3n2)n1 [Compound 55] | 25.3 |  |  |  | IC50 (BRG-1): 239 nM; Ratio* (BRG1 IC50 (μM) divided by BRM IC50 (μM)) (BRM): 9.45 |
| C[C@@H]1CN(c2cccc(-c3cnc4cnc(CNC(=O)c5ccc(C(F)F)c(S(C)(=O)=O)c5)cc4n3)n2)C[C@H](C)O1 [Compound 56] | 13.6 |  |  |  | IC50 (BRG-1): 240 nM; Ratio* (BRG1 IC50 (μM) divided by BRM IC50 (μM)) (BRM): 17.62 |
| O=C(NCc1cc2nc(-c3cccc(N4CCC4)n3)ccc2nn1)c1ccc2c(c1)S(=O)(=O)CCOC2 [Compound 57] | 8 |  |  |  | IC50 (BRG-1): 118 nM |
| CN1CCOc2c(-c3ccc4cnc(CNC(=O)c5ccc6c(c5)S(=O)(=O)CCOC6)cc4n3)ccnc21 [Compound 58] | 96.9 |  |  |  | IC50 (BRG-1): 546 nM; Ratio* (BRG1 IC50 (μM) divided by BRM IC50 (μM)) (BRM): 5.63 |
| CO[C@@H](c1ccc2c(n1)N(c1ccc3cnc(CNC(=O)c4ccc5c(c4)S(=O)(=O)CCOC5)cc3n1)CCC2)C1CC1 [Compound 663] |  | 673 | 7.43 |  |  |
| CO[C@H](c1ccc2c(n1)N(c1ccc3cnc(CNC(=O)c4ccc5c(c4)S(=O)(=O)CCOC5)cc3n1)CCC2)C1CC1 [Compound 664] |  | 1750 | 2.86 |  |  |
| O=C(NCc1cc2nc(-c3cccc4c3CN(C3COC3)CC4)ccc2cn1)c1ccc2c(c1)S(=O)(=O)CCOC2 [Compound 671] |  | 4000 | 1.25 |  |  |
| COCCN1CCc2cccc(-c3ccc4cnc(CNC(=O)c5ccc6c(c5)S(=O)(=O)CCOC6)cc4n3)c2C1 [Compound 674] |  | 3780 | 1.32 |  |  |
| O=C(NCc1cc2nc(-c3cccc4c3CN(CC(F)F)CC4)ccc2cn1)c1ccc2c(c1)S(=O)(=O)CCOC2 [Compound 675] |  | 884 | 5.66 |  |  |
| C[C@@H]1CN(c2cccc(-c3ccc4cnc(CNC(=O)c5ccc6c(c5)S(=O)(=O)[C@H](C)CO6)cc4n3)n2)C[C@H](C)O1 [Compound 684] |  | 484 | 10.33 |  |  |
| O=C(NCc1cc2nc(-c3cccc4c3CN(C3CC3)CC4)ccc2cn1)c1ccc2c(c1)S(=O)(=O)CCOC2 [Compound 685] |  | 715 | 6.99 |  |  |
| CS(=O)(=O)c1cc(C(=O)NCc2cc3nc(N4CCCc5ccc(C6CC6)nc54)ccc3cn2)cnc1C(F)F [Compound 721] | 188 |  |  | 26.60 |  |
| O=C(NCc1cc2nc(C34CC3CCc3cccnc34)ccc2cn1)c1ccc2c(c1)S(=O)(=O)CCOC2 (stereo not shown) [Compound 762] |  |  |  | 1.00 |  |
| O=C(NCc1cc2cc(N3CCOc4cc(C5CC5)cnc43)ncc2cn1)c1ccc2c(c1)S(=O)(=O)CCOC2 [Compound 811] |  |  |  | 1.00 |  |
| Cn1cccc(-c2ccc3cnc(CNC(=O)c4ccc5c(c4)S(=O)(=O)CCOC5)cc3n2)c1=O [Compound 826] | 3200 |  |  | 1.56 |  |
| COCCN(c1cc(C2CC2)ccn1)c1ccc2cnc(CNC(=O)c3ccc4c(c3)S(=O)(=O)CCOC4)cc2n1 [Compound 829] | 1660 |  |  | 3.02 |  |
| COCCN(c1ccc(C2CC2)cn1)c1ccc2cnc(CNC(=O)c3ccc4c(c3)S(=O)(=O)CCOC4)cc2n1 [Compound 833] | 2320 |  |  | 2.15 |  |
| COCCN(c1ccnc(C2CC2)n1)c1ccc2cnc(CNC(=O)c3ccc4c(c3)S(=O)(=O)CCOC4)cc2n1 [Compound 839] |  |  |  | 1.00 |  |
| COCCN(c1cccc(C2CC2)n1)c1ccc2cnc(CNC(=O)c3ccc4c(c3)S(=O)(=O)CCOC4)cc2n1 [Compound 840] | 4000 |  |  | 1.25 |  |
| O=C(NCc1cc2nc(-c3ccc(OC(F)F)cn3)ccc2cn1)c1ccc2c(c1)S(=O)(=O)CCOC2 [Compound 849] | 606 |  |  | 8.25 |  |
